Source: patent US7795255B2, “Rigidified compounds for modulating heparanase activity” (InSight Biopharmaceuticals Ltd., priority 2005, dated 2010)

Columns and labels:
[1] = molecular target: T1, recombinant human pro-heparanase (H60) (Homo sapiens, UniProt Q9Y251); assay: Pro-heparanase (H60) activation in a cell-based assay; conditions: inhibition of pro-heparanase activation in CHO cells; NI = no inhibition
T1 construct: Heparanase maturation involves the removal of the signal peptide, transforming the 65 kDa pre-pro-heparanase into a 60 kDa pro-heparanase; made in house
T1 sequence (Q9Y251 36-543): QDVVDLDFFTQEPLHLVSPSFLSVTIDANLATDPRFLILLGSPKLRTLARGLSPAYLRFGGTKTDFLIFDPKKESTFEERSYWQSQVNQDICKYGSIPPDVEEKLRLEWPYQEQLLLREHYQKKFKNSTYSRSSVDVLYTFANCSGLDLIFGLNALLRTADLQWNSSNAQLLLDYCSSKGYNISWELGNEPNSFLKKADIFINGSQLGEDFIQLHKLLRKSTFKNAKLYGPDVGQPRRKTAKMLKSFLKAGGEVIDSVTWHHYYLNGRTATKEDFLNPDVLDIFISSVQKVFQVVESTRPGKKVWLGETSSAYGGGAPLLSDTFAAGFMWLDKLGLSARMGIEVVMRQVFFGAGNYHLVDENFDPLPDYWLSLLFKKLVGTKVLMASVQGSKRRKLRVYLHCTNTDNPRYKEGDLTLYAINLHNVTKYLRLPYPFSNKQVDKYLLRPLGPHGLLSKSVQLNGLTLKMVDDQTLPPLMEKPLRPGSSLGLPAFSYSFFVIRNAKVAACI
Method: Pro-heparanase (H60) activation in a cell-based assay: Chinese hamster ovary (CHO) cells were grown in complete F12 medium supplemented with 10% fetal calf serum (FCS). […] The plates were incubated for 24 hours in a 37° C. humidified incubator with 5% CO2. […] The plates were further incubated for additional 4 hours. The pro-heparanase was allowed to internalize by the cells and further processed to generate the active 53 kDa heparanase. At the end of the incubation, the cells were lysed by three consecutive cycles of freezing and thawing in a −80° C. freezer and a 37° C. shaker.
The rigidified compounds described herein were tested for inhibition of pro-heparanase activation in the cell-based assay described above.

heparanase (H53) = molecular target: T2, heparanase (H53) (Homo sapiens, UniProt Q9Y251); assay: Heparanase (H53) assay (DMB assay); type: biochemical; conditions: for dual activity: inhibition of pro-heparanase activation (H60) and of heparanase activity (H53): compounds with an acidic group; for IC50: inhibition of heparanase activity, DMB assay, NI = no inhibition
T2 construct: The 45 kDa major subunit and the 8 kDa small subunit hetero-complex to form the 53 kDa active form of heparanase
T2 sequence (Q9Y251 36-109 limits assumed): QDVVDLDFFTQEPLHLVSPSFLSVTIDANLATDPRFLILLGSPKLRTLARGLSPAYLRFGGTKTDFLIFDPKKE
T2 sequence (Q9Y251 158-543 limits assumed): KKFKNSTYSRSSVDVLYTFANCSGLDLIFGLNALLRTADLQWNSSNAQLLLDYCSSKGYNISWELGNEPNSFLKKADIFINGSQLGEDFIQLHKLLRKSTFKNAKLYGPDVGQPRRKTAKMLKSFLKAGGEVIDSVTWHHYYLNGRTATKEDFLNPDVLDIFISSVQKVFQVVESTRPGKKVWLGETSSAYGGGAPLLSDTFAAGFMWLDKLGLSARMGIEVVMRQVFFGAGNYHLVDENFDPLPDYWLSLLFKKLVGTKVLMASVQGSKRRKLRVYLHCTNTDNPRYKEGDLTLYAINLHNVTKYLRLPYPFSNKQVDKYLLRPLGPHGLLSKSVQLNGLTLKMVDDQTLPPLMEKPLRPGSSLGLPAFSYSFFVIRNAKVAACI
Method: Heparanase (H53) assay: The rigidified compounds described herein were tested for inhibition of heparanase activity in the DMB assay described in U.S. Pat. No. 6,190,875. IC50 was calculated from inhibition curves of all active compounds.

[2] = molecular target: T3, vascular endothelial growth factor (VEGF) (Homo sapiens, UniProt P15692); assay: ELISA for determination of binding of VEGF to heparin; conditions: for IC50: inhibition of VEGF binding to heparin, NI = no inhibition; for inhibition of VEGF binding to heparin: inhibition towards both growth factors
T3 sequence (P15692 27-191 isoform P15692-4): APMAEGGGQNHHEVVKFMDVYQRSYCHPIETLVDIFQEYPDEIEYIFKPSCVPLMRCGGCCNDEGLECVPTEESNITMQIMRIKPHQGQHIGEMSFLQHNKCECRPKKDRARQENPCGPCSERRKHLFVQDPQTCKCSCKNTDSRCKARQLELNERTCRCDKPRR
Method: Enzyme-linked immunosorbent assay (ELISA) for determination of binding of vascular endothelial growth factor (VEGF) to heparin: 96-well microplates were coated for 2 hours. at 23-25° C. with 5 μg/ml heparin-albumin (Rimon Biotech) and blocked with 1% bovine serum albumin (BSA) in phosphate buffer (PBS) with 0.05% Tween and 0.01% thimerosal for 2 hours. VEGF was added to the plates at a concentration of 10 ng/ml and the plates were thereafter incubated for 45 minutes at 23-25° C. The amount of VEGF bound to heparin was detected using anti-VEGF monoclonal antibody (Sigma Cat. No. V4758) at a concentration of 0.26 μg/ml and secondary antibodies Sheep anti-mouse IgG linked to horseradish peroxidase (1:2000) using 3,3′,5,5′-tetramethylbenzidine (TMB, Pierce Cat. No. 34021) as a substrate for peroxidase. The plates were read at 450 nm with a reference wavelength of 630 nm using a VERSAmax plate reader. […] Percent inhibition was calculated as compared with a control pre-incubated with a solution of 1% DMSO and the results are presented in Table 3 below.

β-FGF = β-FGF (Homo sapiens, UniProt P09038); assay: ELISA for determination of binding of β-FGF to heparin; conditions: for IC50: inhibition of β-FGF binding to heparin, NI = no inhibition; for inhibition of β-FGF binding to heparin: inhibition towards both growth factors
Method: ELISA for determination of binding of β-FGF to heparin: 96-well microplates were coated for 2 hours at 23-25° C. with 5 μg/ml heparin-albumin (Rimon Biotech) and blocked with 1% BSA in PBS, with 0.05% Tween, and 0.01% thimerosal for 2 hours. β-FGF was added to the plates at a concentration of 10 ng/ml and plates were incubated for 45 minutes at 23-25° C. The amount of β-FGF bound to heparin was detected using anti-FGF monoclonal antibody (Sigma Cat. No. F6162) at a concentration of 2.5 ng/ml and secondary antibodies Sheep anti-mouse IgG linked to horseradish peroxidase (1:3000) TMB (Pierce Cat. No. 34021) was used as a substrate for peroxidase. The plates were read at 450 nm with a reference wavelength of 630 nm using a VERSAmax plate reader.

Sequence of β-FGF (P09038 143-288): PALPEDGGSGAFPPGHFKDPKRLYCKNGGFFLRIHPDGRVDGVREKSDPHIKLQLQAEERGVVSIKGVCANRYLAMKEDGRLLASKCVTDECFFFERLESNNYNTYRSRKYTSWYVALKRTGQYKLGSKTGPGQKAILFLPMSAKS

Row | Compound | IC50 [1] [nM] | dual activity: inhibition of pro-heparanase activation (H60) and of heparanase activity (H53) (heparanase (H53)) | IC50 [2] [nM] | IC50 (β-FGF) [nM] | IC50 (heparanase (H53)) [nM] | inhibition of VEGF binding to heparin [2] | inhibition of β-FGF binding to heparin (β-FGF)
1 | CC(C)(CC(=O)N1CCC[C@@H]1C(=O)O)CN1C(=O)c2cc3oc(-c4ccc(Cl)cc4)cc3n2C1=S [Compound 23, 1-{4-[2-(4-Chloro-phenyl)-6-oxo-4-thioxo-6H-1-oxa-3b,5-diaza-cyclopenta[a]pentalen-5-yl]-3,3-dimethyl-butyryl}-pyrrolidine-2-carboxylic acid] | 820 | dual activity | 9300 | 7900 |  |  | 
2 | CN(CC(=O)O)C(=O)CC(C)(C)CN1C(=O)c2cc3oc(-c4ccc(Cl)cc4)cc3n2C1=S [Compound 21, ({4-[2-(4-Chloro-phenyl)-6-oxo-4-thioxo-6H-1-oxa-3b,5-diaza-cyclopenta[a]pentalen-5-yl]-3,3-dimethyl-butyryl}-methyl-amino)-acetic acid] | 1000 | dual activity | 7300 | 6500 | 66200 |  | 
3 | CCN(CC)C(=O)CC1(CN2C(=O)c3cc4oc(-c5ccc(Cl)cc5)cc4n3C2=S)CCCCC1 [Compound 24, 2-{1-[2-(4-Chloro-phenyl)-6-oxo-4-thioxo-6H-1-oxa-3b,5-diaza-cyclopenta[a]pentalen-5-ylmethyl]-cyclohexyl}-N,N-diethyl-acetamide] | 1500 |  | 90 | 150 |  | sub-micromolar | sub-micromolar
4 | CCOC(=O)CC(C)(C)CN1C(=O)c2cc3oc(-c4ccc(Cl)cc4)cc3n2C1=S [Compound 10, 4-[2-(4-Chloro-phenyl)-6-oxo-4-thioxo-6H-1-oxa-3b,5-diaza-cyclopenta[a]pentalen-5-yl]-3,3-dimethyl-butyric acid ethyl ester] | 1500 |  | 170 | 200 |  | sub-micromolar | sub-micromolar
5 | O=C(O)CCCN1C(=O)c2cc3oc(-c4ccc(Cl)cc4)cc3n2C1=S [Compound 5, 4-[2-(4-chloro-phenyl)-6-oxo-4-thioxo-6H-1-oxa-3b,5-diaza-cyclopenta[a]pentalen-5-yl]-butyric acid] | 1000 | dual activity | 6000 | 2100 | 11800 |  | 
6 | CCN(CC)C(=O)CC(C)(C)CN1C(=O)c2cc3oc(-c4ccc(Cl)cc4)cc3n2C1=S [Compound 13, 4-[2-(4-Chloro-phenyl)-6-oxo-4-thioxo-6H-1-oxa-3b,5-diaza-cyclopenta[a]pentalen-5-yl]-N,N-diethyl-3,3-dimethyl-butyramide] | 1400 |  | 550 | 220 |  | sub-micromolar | sub-micromolar
7 | O=C(O)CCCN1C(=O)c2cc3oc(-c4cccc(C(F)(F)F)c4)cc3n2C1=S [Compound 26] | 780 |  | 4800 | 1700 | 10200 |  | 

Further lines, results first:

Row | IC50 [1] [nM] | dual activity: inhibition of pro-heparanase activation (H60) and of heparanase activity (H53) (heparanase (H53)) | IC50 [2] [nM] | IC50 (β-FGF) [nM] | IC50 (heparanase (H53)) [nM] | inhibition of VEGF binding to heparin [2] | inhibition of β-FGF binding to heparin (β-FGF) | Compound
8 | 700 |  |  |  | 27000 |  |  | O=C(O)CCCN1C(=O)c2cc3sc(-c4ccc([N+](=O)[O-])cc4)cc3n2C1=S [Compound 32, 4-[2-(4-Nitro-phenyl)-6-oxo-4-thioxo-6H-1-thia-3b,5-diaza-cyclopenta[a]pentalen-5-yl]-butyric acid]
9 | 150 |  | 420 | 870 |  | sub-micromolar | sub-micromolar | CC(C)(CC(=O)N1CCOCC1)CN1C(=O)c2cc3oc(-c4ccc(Cl)cc4)cc3n2C1=S [Compound 17, 2-(4-Chloro-phenyl)-5-(2,2-dimethyl-4-morpholin-4-yl-4-oxo-butyl)-4-thioxo-4,5-dihydro-1-oxa-3b,5-diaza-cyclopenta[a]pentalen-6-one]
10 | 420 |  | 510 | 500 |  | sub-micromolar | sub-micromolar | CC(C)(CC(=O)NCC(=O)OC(C)(C)C)CN1C(=O)c2cc3oc(-c4ccc(Cl)cc4)cc3n2C1=S [Compound 19, {4-[2-(4-Chloro-phenyl)-6-oxo-4-thioxo-6H-1-oxa-3b,5-diaza-cyclopenta[a]pentalen-5-yl]-3,3-dimethyl-butyrylamino}-acetic acid tert-butyl ester]
11 | 120 |  | 260 | 470 |  | sub-micromolar | sub-micromolar | CN(C)CCNC(=O)CC(C)(C)CN1C(=O)c2cc3oc(-c4ccc(Cl)cc4)cc3n2C1=S [Compound 14, 4-[2-(4-Chloro-phenyl)-6-oxo-4-thioxo-6H-1-oxa-3b,5-diaza-cyclopenta[a]pentalen-5-yl]-N-(2-dimethylamino-ethyl)-3,3-dimethyl-butyramide]
12 | 560 |  | 70 | 280 | 74000 | sub-micromolar | sub-micromolar | CCOC(=O)CCCN1C(=O)c2cc3sc(-c4ccc([N+](=O)[O-])cc4)cc3n2C1=S [Compound 31, 4-[2-(4-nitro-phenyl)-6-oxo-4-thioxo-6H-1-thia-3b,5-diaza-cyclopenta[a]pentalen-5-yl]-butyric acid ethyl ester]
13 | 760 |  | 130 | 60 |  |  |  | CCOC(=O)CCCN1C(=O)c2cc3oc(-c4ccc(Cl)cc4)cc3n2C1=S [Compound 4, ethyl 4-[2-(4-chloro-phenyl)-6-oxo-4-thioxo-6H-1-oxa-3b,5-diaza-cyclopenta[a]pentalen-5-yl]-butyric acid ethyl ester]
